For experiment [1], the system named is Saccharomyces cerevisiae. Kind of experiment: Inhibition of yeast RNA polymerase 1 in YBR140C cells expressing human RNA polymerase 1 promoter and rRNA assessed as reduction in cell growth at 390 to 1560 nM by UV-spectrophotometric analysis. The format is cell-based.
For experiment [2], the system named is Saccharomyces cerevisiae. Put plainly: Inhibition of yeast RNA polymerase 1 in YBR140C cells expressing human RNA polymerase 1 promoter and rRNA assessed as reduction in human rDNA transcription at 390 to 3120 nM by qRT-PCR analysis. In kind it is cell-based. In general terms: In qPCR the cycle at which signal appears reflects the starting amount.
A further experiment deals with NCI-H460. Kind of experiment: Antiproliferative activity against human H460 cells incubated for 4 days by MTT assay. The note with it: NCI-H460, 96 h. In kind it is functional, cell-based. Background: Tetrazolium dyes change colour on reduction, which living cells bring about.
The subject of a further experiment is A2780. Put plainly: Antiproliferative activity against human A2780 cells incubated for 4 days by MTT assay. Conditions: A2780, 96 h. The format is functional, cell-based.
In experiment [3] the test system is Saccharomyces cerevisiae. Kind of experiment: Inhibition of yeast RNA polymerase 1 in YBR140C cells expressing human RNA polymerase 1 promoter and rRNA assessed as reduction in cell growth at 126 to 2500 nM by UV-spectrophotometric analysis. The format is cell-based.
Experiment [4] has as its system Saccharomyces cerevisiae. Put plainly: Inhibition of yeast RNA polymerase 1 in YBR140C cells expressing human RNA polymerase 1 promoter and rRNA assessed as reduction in human rDNA transcription at 312 to 2500 nM by qRT-PCR analysis. The format is cell-based.

The source made the active and inactive calls. The calls are words filed in the database; no cut-off is given here.

For `COCc1c(C(C)C)nc(C(C)C)c(/C=C/[C@@H](O)C[C@@H](O)CC(=O)O)c1-c1ccc(F)cc1` [CERIVASTATIN SODIUM], the inhibition result in the experiment on Saccharomyces cerevisiae [1] and with Saccharomyces cerevisiae [2] was “Active” each time. For the same compound, the IC50 (in general, the concentration that inhibits the measured activity by half) with NCI-H460 worked out at 3500 nM; in the experiment with A2780, 700 nM.

`Cc1cnc(CNC(=O)c2c(=O)c3ccc(N4CCCN(C)CC4)nc3n3c2sc2ccccc23)cn1` [CX-5461] returned an IC50 with A2780 of 120 nM. For the same compound, the inhibition result in the experiment on Saccharomyces cerevisiae [3] and in the experiment on Saccharomyces cerevisiae [4] was “Active” in each case.
